Results published in patent US20120157401A1, “METHODS FOR TREATING NEUROFIBROMATOSIS” (PTC Therapeutics, Inc., priority 2009, published 2012).
Marks after values point to notes of the source that are not given here.

Key:
[1] = test system: soluble VEGF121 and VEGF165 isoforms; assay: VEGF inhibition EC50 by ELISA in the same human tumor cell lines (Table 25); format: cell-based; settings: tumor cells; data not shown
Experimental: Results. […] The conditioned media were collected and assayed by ELISA for soluble VEGF121 and VEGF165 isoforms (as described in Section 9.1.1.1); results were calculated as percentage inhibition relative to vehicle treated controls. EC50 values were calculated from the concentration response curves.

HT1080 cells = assay: Cell cycle analysis by propidium iodide flow cytometry in HT1080 cells (percent cells in S-phase, Table 24); format: cell-based, human; settings: tumor cells; data not shown
Experimental: Experimental Design. […] After treatment, cells were trypsinized, and stained with propidium iodide (PI) dye to measure DNA content of individual cells by flow cytometry. Output comprised histograms showing relative DNA content in 10,000 cells.
While compounds which cause greater than 20% of the cells to accumulate in S-phase at 100 nM are considered active, a larger percentage of cells may be accumulated in S-phase at lower doses depending on the Compound, as shown in FIG. 12 for example.

HT1080 xenografts = assay: BrdU labeling of cells from HT1080 xenografts grown in nude mice; format: in vivo, athymic nude mice; settings: Day 1, 2, 3; Compound #10 10 mg/kg oral QD, doxorubicin 6 mg/kg IP, bevacizumab 5 mg/kg IP
Experimental: (§1) Experimental Design. HT1080 cells (5×10^6 cells/mouse) were implanted subcutaneously in male athymic nude mice.
The mice were sacrificed 3 hours later, and the tumors collected. A single cell suspension was prepared from the tumor cells. The cells were permeabilized and an antibody to BrdU was used to stain cells that had entered S phase during the labeling period. The proportion of cells actively synthesizing DNA was determined by cell sorting.

[2] = test system: human VEGF121 and VEGF165; assay: HT1080 xenograft time course: pathologic plasma human VEGF; format: in vivo; settings: by Day 1
Experimental: as §1
Tumor size was measured by calipers immediately pre-treatment and at the time of sacrifice on Day 1, 2, or 3 (5 mice per group per day). At sacrifice, the plasma was collected for assay of pathologic human VEGF concentration using an ELISA that recognizes human VEGF121 and VEGF165 (as described in Section 9.1.1.1).

[3] = test system: hypoxia-inducible endogenous VEGF expression; assay: Hypoxia-inducible endogenous VEGF expression ELISA in HeLa cells, dose-response EC50 (Table 3); format: cell-based, human; settings: Homo sapiens; HeLa cells, hypoxic conditions (1% O2), 24-48 hours, VEGF in conditioned media; read-out: ELISA EC50
Procedure, shortened: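 HeLa cells kept 24-48 h under hypoxia (1% O2, 5% CO2, nitrogen balance) with or without compound, e.g. seven concentrations; secreted VEGF in conditioned medium quantified by ELISA against a standard curve. Parallel Cell Titer Glo viability under identical conditions excludes cytotoxicity.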

[4] = test system: HT1080 tumor cells in vivo; assay: HT1080 xenograft studies of Compound 1205, Compound #10 and Compound 1330: tumor growth; design: species or system athymic nude mice
Description: Experimental Design. HT1080 cells (5×10^6 cells/mouse) were implanted subcutaneously in male athymic nude mice. […] For comparison, Compound #10 was included in this study.

[5] = test system: human VEGF121 and VEGF165; assay: HT1080 xenograft studies #21/#23: intra-tumor and pathologic plasma human VEGF (Compound 1205); format: in vivo; settings: for Mean difference in human plasma VEGF (%) on Day 14 / Mean difference in human tumor VEGF (%) at Day 14: 14 days
Description: Experimental Design. HT1080 cells (5×10^6 cells/mice) were implanted subcutaneously into male athymic nude mice. Treatment with vehicle alone or Compound 1205 was initiated when the median tumor volume was approximately 311±88 mm^3. Table 7 and Table 9 (study design #21 and #23) provide the study design for assessing tumor and plasma pathologic VEGF concentrations—each group in each study included eight (8) mice. When the tumors in vehicle-treated mice had reached the target size of ˜1200 mm^3 for study #21 and ˜1500 mm^3 for study #23, all mice in the study were sacrificed, and excised tumors were homogenized in buffer containing protease inhibitors. Both intra-tumor and pathologic plasma human VEGF levels were measured using an ELISA that recognizes human VEGF121 and VEGF165. Intra-tumor VEGF levels were normalized to the total tumor protein concentration and pathologic plasma VEGF levels were expressed in pg/mL. Because smaller tumors produce less VEGF per mg of tumor protein, intra-tumor VEGF levels were normalized to tumor size.

T47D xenografts = assay: T47D estrogen-sensitive breast cancer xenograft: tumor growth; settings: 10 mg/kg oral QD
Experimental: Experimental Design. Estrogen pellets (0.72 mg/pellet) were implanted 30 days prior to cell implantation and again 60 days later. T47D estrogen-sensitive breast cancer cells (5×10^6 cells/mouse mixed 1:1 with […] ™) were implanted subcutaneously in female athymic nude mice. […] Tamoxifen was included as a positive control.
Tumor size was measured by calipers at periodic intervals. After 74 days of treatment, the mice were sacrificed.

IL-6 = assay: Patients: serum and plasma IL-6 levels; format: in vivo, human
Experimental: Subjects with NF2 may receive continuous daily treatment with a Compound administered at 100 mg per dose, 2 times a day (BID) for up to 1 year, or longer as appropriate, or until tumor progression. […] Tumor shrinkage or an improvement in hearing are indicators of efficacy.
Anti-angiogenic activity: Assessing VEGF concentrations provides a relevant and convenient mechanism-specific marker of Compound activity. […] For example, clinically validated ELISA kits (e.g., from R&D Systems, Minneapolis, Minn.) may be used to measure concentrations of VEGF, VEGF-C, P1GF, VEGFR, and inflammatory mediators such as IL-6 and IL-8. CT scan and MRI scan may also be used to assess peritumoral inflammation or edema.
Blood for VEGF, VEGFR, and Cytokines. Two blood samples (1 for plasma and 1 for serum) may be obtained for assessment of VEGF, VEGFR, and cytokine levels.
After processing, samples may be placed into a freezer at approximately −70° C. An ELISA-based multiplex system may be used to measure plasma VEGF and cytokine levels.

NC(Cn1ccc(=O)c(O)c1)C(=O)O (centres unmarked) [mimosine, reference compound]
Effect on VEGF production [1]: does not delay or prolong the cell cycle or reduce VEGF production | Effect on the cell cycle (HT1080 cells): does not delay or prolong the cell cycle

COc1cccc2c1C(=O)c1c(O)c3c(c(O)c1C2=O)C[C@@](O)(C(=O)CO)C[C@@H]3O[C@H]1C[C@H](N)[C@H](O)[C@H](C)O1 [doxorubicin, reference compound]
BrdU staining of tumor cells (proportion of cells in S phase) (HT1080 xenografts): decreased the percentage of tumor cells staining with BrdU | Pathologic plasma human VEGF levels vs control animals [2]: numerically lower than in control animals

O=C(Oc1ccc(Cl)cc1)N1CCc2c([nH]c3ccc(Cl)cc23)[C@@H]1c1ccc(OCC[C@H](O)CO)cc1 [Compound 1205]
EC50 [3]: < 8 nM | Lowest dose at which active on tumor growth ([4]; HT1080 xenografts, QD): 0.3 mg/kg | Mean difference in tumor growth rate at the Day that the vehicle-treated tumors taken off study ([4]; Study 21, 0.5 mg/kg QD, Day 14): 61%** | Final mean terminal tumor size in treatment group ([4]; Study 21, 0.5 mg/kg QD, PD, 14 days): 580 mm^3 | Mean difference in tumor growth rate at the Day that the vehicle-treated tumors taken off study ([4]; Study 21, 3 mg/kg QD, Day 14): 80%** | Final mean terminal tumor size in treatment group ([4]; Study 21, 3 mg/kg QD, PD, 14 days): 379 mm^3 | Difference vs. vehicle in median number of days to reach 1000 mm^3 ([4]; Study 22, 0.5 mg/kg QD): 11 days | Mean difference in tumor growth rate at the Day that the vehicle-treated tumors taken off study ([4]; Study 22, 0.5 mg/kg QD, Day 11): 62%** | Final mean terminal tumor size in treatment group ([4]; Study 22, 0.5 mg/kg QD, Xeno): 1750 mm^3 | Difference vs. vehicle in median number of days to reach 1000 mm^3 ([4]; Study 22, 3 mg/kg QD): 14** Days | Mean difference in tumor growth rate at the Day that the vehicle-treated tumors taken off study ([4]; Study 22, 3 mg/kg QD, Day 11): 75%** | Final mean terminal tumor size in treatment group ([4]; Study 22, 3 mg/kg QD, Xeno): 1840 mm^3 | Mean difference in tumor growth rate at the Day that the vehicle-treated tumors taken off study ([4]; Study 23, 1 mg/kg QD, Day 14): 59%** | Final mean terminal tumor size in treatment group ([4]; Study 23, 1 mg/kg QD, PD, 14 days): 710 mm^3 | Difference vs. vehicle in median number of days to reach 1000 mm^3 ([4]; Study 24a, 10 mg/kg QD): 14** Days | Mean difference in tumor growth rate at the Day that the vehicle-treated tumors taken off study ([4]; Study 24a, 10 mg/kg QD, Day 11): 76%** | Final mean terminal tumor size in treatment group ([4]; Study 24a, 10 mg/kg QD, Xeno): 1400 mm^3 | Difference vs. vehicle in median number of days to reach 1000 mm^3 ([4]; Study 24b, 0.3 mg/kg QD): 0.7 days | Mean difference in tumor growth rate at the Day that the vehicle-treated tumors taken off study ([4]; Study 24b, 0.3 mg/kg QD, Day 15): 28% | Final mean terminal tumor size in treatment group ([4]; Study 24b, 0.3 mg/kg QD, Xeno): 1540 mm^3 | Inhibition of pathologic plasma human VEGF levels ([5]; 0.5 or 3 mg/kg QD): more than 95% | Inhibition of tumor human VEGF levels ([5]; 0.5 or 3 mg/kg QD): more than 95% | Mean difference in human plasma VEGF (%) on Day 14 ([5]; Study #21, 0.5 mg/kg QD): 97%** | Mean difference in human tumor VEGF (%) at Day 14 ([5]; Study #21, 0.5 mg/kg QD): 95%** | Mean difference in human plasma VEGF (%) on Day 14 ([5]; Study #21, 3 mg/kg QD): 99% | Mean difference in human tumor VEGF (%) at Day 14 ([5]; Study #21, 3 mg/kg QD): 98%** | Mean difference in human plasma VEGF (%) on Day 14 ([5]; Study #23, 1 mg/kg QD): 100%** | Mean difference in human tumor VEGF (%) at Day 14 ([5]; Study #23, 1 mg/kg QD): 95** %

CC/C(=C(\c1ccccc1)c1ccc(OCCN(C)C)cc1)c1ccccc1 [Tamoxifen, tamoxifen, reference compound]
Mean % Inhibition of Tumor Size vs Vehicle at Day 74 (T47D xenografts): 50%

COc1ccc([C@H]2c3[nH]c4ccc(Cl)cc4c3CCN2C(=O)Oc2ccc(Cl)cc2)cc1 [#10]
EC50 [3]: < 8 nM | Serum IL-6 levels in patients (FIG. 37) (IL-6): reduced
